In patent publication US10865384B2, “2,4,5-tri-substituted azole-based casein kinase 1 inhibitors as inducers for cardiomyogenesis” (AGENCY FOR SCIENCE, TECHNOLOGY AND RESEARCH, priority 2014, dated 2020):
Entries after “also recorded” stand apart in the source; their conditions may differ. Where two headings read alike, the source gives them in different places.

Assays:
[1] = tested on: HES-3; experiment: Differentiation on microcarriers; type: cell-based, human; conditions: microcarrier platform, 5 μM
Method: HES-3 were seeded at 2×10^5 cells/ml in the 50 ml spinner flask that contained 25 ml hESC medium and 200 mg PLL+LN-coated MC (poly-L-lysine and laminin coated microcarrier). The sample was incubated at 37° C./5% carbon dioxide for 24 hours in static conditions, after which another 25 ml hESC medium were added and the culture was then agitated at 30 rpm for 6 days. Eighty percent of the spent medium was replaced daily with fresh hESC medium. The cell concentration and cell viability were determined daily using a Nucleocounter NC-3000 (Chemometec, Davis, Calif., USA). Pluripotent markers were measured by flow cytometry on day 7. The size of the hESC/MC aggregates was measured from images taken using an Olympus IX70 microscope (Olympus, Shinjuku-ku, Tokoyo, Japan), with average dimensions determined using NIH image J software.
After 24 hours the differentiation medium was replenished, and 5 μM IWP-2 or TA-01 was added at day 3. […] On day 20 of the differentiation protocol, cells from all cultures were harvested and analyzed by fluorescence-activated cell sorting (FACS) for cardiac markers MLC2a and Tropoin T (cTnt) and MF20.
Studies with the 2,4,5-tri-substituted azole compounds were done at a fixed concentration of 5 μM at an induction day 2 and alternatively at day 3. […] On day 14 of differentiation, EBs were visually analysed for cardiomyocyte differentiation. […]

[2] = target: CK1δ (Homo sapiens (Human), UniProt P48730); experiment: LanthaScreen Eu kinase binding assay, CK1δ
CK1δ, sequence (P48730 whole entry): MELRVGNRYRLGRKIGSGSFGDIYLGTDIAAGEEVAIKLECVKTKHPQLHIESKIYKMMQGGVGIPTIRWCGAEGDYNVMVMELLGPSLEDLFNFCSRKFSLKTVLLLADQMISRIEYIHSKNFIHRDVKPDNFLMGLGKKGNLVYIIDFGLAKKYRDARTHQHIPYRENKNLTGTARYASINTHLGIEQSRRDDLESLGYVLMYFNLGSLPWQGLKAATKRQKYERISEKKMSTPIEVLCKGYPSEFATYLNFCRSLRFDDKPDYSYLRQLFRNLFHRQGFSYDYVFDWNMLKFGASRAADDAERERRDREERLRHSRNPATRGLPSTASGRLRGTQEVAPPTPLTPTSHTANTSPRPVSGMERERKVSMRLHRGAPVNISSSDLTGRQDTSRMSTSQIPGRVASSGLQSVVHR

[3] = tested on: hESC3 Nkx2.5eGFP/w cells; experiment: Cardiomyocyte differentiation of embryoid bodies, Nkx2.5 GFP by flow cytometry; type: cell-based, human; conditions: for Cardiogenic effect (GFP expression fold over DMSO): 5 μM
[4] = target: CK1ϵ (Homo sapiens (Human), UniProt P49674); experiment: LanthaScreen Eu kinase binding assay, CK1ϵ
CK1ϵ, sequence (P49674 whole entry): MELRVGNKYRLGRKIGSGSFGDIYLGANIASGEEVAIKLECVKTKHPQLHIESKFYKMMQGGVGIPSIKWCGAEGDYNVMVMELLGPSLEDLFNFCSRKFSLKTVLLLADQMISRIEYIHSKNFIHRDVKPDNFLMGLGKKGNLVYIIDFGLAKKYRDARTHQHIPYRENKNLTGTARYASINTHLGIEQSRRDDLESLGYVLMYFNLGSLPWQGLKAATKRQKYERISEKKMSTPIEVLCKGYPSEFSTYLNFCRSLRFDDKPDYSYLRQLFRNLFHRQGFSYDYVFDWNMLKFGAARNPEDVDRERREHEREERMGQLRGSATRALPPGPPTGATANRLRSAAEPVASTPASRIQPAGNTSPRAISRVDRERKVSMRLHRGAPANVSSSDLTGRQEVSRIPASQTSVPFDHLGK

[5] = tested on: H3 hESCs Nkx2.5eGFP/w; experiment: High yield cardiomyocyte differentiation after 24 h CHIR99021 pre-treatment; type: cell-based, human; conditions: for Average beating frequency / Beat count (percentage of EBs contracting within 10 s) / Beating area: CHIR99021 only, CHIR99021 with SB203580 (days 1-8), CHIR99021 with IM-31 (days 4-8)
[6] = target: p38α MAPK (Homo sapiens (Human), UniProt Q16539); experiment: HitHunter p38 MAP kinase binding assay; conditions: read-out: p38α MAPK IC50 ± SEM
p38α MAPK (Homo sapiens (Human), UniProt Q16539), sequence (Q16539 whole entry, looked up): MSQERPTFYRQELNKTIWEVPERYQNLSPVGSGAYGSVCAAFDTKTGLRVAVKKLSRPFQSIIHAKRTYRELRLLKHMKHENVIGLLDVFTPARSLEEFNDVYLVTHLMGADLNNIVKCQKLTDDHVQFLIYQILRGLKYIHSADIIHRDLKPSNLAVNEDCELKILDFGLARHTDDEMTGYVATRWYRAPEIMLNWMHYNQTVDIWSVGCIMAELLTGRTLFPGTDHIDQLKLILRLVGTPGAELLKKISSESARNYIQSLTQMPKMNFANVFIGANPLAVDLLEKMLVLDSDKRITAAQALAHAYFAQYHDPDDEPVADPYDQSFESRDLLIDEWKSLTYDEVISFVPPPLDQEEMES

[7] = tested on: hESC3 Nkx2.5eGFP/w cells; experiment: Differentiation in 96-U bottom ultra-low attachment well plates, GFP area imaging; type: cell-based, human; conditions: 5 μM; for Average GFP %: after CHIR99021, read on day 14, GFP area over embryoid body size; for Average GFP μm^2 / Average Area μm^2: day 14; for Average Area μm^2: embryoid body size
[8] = tested on: porcupine/Wnt; conditions: read-out: IC50 (published by companies), porcupine/Wnt inhibition; cited from earlier work
[9] = tested on: p38α MAPK; conditions: read-out: IC50 (published by companies), p38α MAPK inhibition; cited from earlier work
[10] = target: p38β MAPK (Homo sapiens (Human), UniProt Q15759); conditions: read-out: IC50 (published by companies), p38β MAPK inhibition; cited from earlier work
p38β MAPK, sequence (Q15759 whole entry): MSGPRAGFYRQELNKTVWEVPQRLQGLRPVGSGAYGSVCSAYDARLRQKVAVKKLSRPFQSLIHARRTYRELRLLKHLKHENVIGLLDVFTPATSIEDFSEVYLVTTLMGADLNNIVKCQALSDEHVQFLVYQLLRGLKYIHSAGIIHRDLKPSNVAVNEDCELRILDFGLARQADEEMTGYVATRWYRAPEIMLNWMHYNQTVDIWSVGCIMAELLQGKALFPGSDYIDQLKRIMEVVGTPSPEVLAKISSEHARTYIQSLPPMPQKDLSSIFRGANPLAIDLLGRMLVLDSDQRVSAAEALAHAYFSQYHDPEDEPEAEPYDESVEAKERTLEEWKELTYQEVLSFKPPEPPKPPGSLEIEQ

[11] = tested on: p38 MAPK; conditions: read-out: IC50 (published by companies), p38 MAPK inhibition; cited from earlier work
[12] = tested on: TNF-a; conditions: read-out: IC50 (published by companies), TNF-a inhibition; cited from earlier work
[13] = tested on: CK1; conditions: read-out: IC50 (published by companies), CK1 inhibition; cited from earlier work
[14] = target: PKD1 (Homo sapiens (Human), UniProt Q15139); conditions: read-out: IC50 (published by companies), PKD1 inhibition; cited from earlier work
PKD1, sequence (Q15139 whole entry): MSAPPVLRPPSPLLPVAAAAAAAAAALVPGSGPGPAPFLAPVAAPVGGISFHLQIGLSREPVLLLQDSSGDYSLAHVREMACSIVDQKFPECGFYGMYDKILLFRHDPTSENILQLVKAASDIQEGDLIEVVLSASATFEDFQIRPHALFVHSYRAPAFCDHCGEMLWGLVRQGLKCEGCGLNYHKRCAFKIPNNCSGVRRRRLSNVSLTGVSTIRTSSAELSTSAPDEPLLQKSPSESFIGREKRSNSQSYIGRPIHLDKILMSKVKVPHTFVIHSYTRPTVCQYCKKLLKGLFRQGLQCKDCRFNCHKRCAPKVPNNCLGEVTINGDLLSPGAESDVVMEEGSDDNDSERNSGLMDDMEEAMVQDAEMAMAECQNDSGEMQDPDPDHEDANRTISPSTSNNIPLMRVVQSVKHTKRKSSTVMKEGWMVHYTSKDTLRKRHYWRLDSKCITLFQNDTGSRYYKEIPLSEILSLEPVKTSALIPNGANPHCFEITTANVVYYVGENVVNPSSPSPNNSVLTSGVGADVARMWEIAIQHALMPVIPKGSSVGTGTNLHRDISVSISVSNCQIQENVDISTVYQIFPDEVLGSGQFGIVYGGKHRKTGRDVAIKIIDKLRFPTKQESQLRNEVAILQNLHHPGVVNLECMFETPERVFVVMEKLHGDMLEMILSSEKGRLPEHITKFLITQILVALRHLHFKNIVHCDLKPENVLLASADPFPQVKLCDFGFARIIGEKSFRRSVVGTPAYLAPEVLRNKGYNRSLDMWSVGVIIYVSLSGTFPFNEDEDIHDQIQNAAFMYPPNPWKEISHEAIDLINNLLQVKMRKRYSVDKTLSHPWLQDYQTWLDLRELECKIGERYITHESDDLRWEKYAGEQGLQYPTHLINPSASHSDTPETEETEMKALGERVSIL

Fc1ccc(-c2nc(-c3c(F)cccc3F)[nH]c2-c2ccncc2)cc1 [IM-31, 4-(2-(2,6-difluorophenyl)-4(5)-(4-fluorophenyl)-1H-imidazol-5(4)-yl)pyridine]
Amounts of cardiomyocytes (cell numbers) compared to IWP-2 [1]: same amounts of cardiomyocytes | IC50 ([2]; Table 3, read-out: IC50 CK1δ): 6.8 nM | IC50 ([2]; read-out: CK1δ IC50 ± SEM): 6.8 ± 0.9 nM | Cardiogenic effect (Nkx2.5 expression) ([3]; 1 μM): same cardiogenic effect as 5 μM of SB203580 | Cardiogenic effect (GFP expression fold over DMSO) ([3]; days 1-8 of differentiation): complete inhibition of cardiomyocyte development; also recorded: failed to induced cardiomyogenesis | Cardiogenic effect (GFP expression fold over DMSO) ([3]; days 4-8 of differentiation): good inducers | Cardiomyocytes generated ([3]; applied as the sole inhibitor): 10-20% | IC50 ([4]; Table 3, read-out: IC50 Ck1ε): 6.4 nM | IC50 ([4]; read-out: CK1ϵ IC50 ± SEM): 6.4 ± 0.4 nM | Total cell count, fold increase (cell expansion) ([5]; 3 μM CHIR99021 24 h then 5 μM days 4-8, day 11): 2 fold | Average beating frequency [5]: 25-30 beats per minute | Beat count (percentage of EBs contracting within 10 s) [5]: over 75% | Beating area [5]: > 5 mm^2 | Cardiomyocyte development ([5]; CHIR99021 then 5 μM days 1-8): inhibition of cardiomyocytes development | Cardiomyocyte yield, cardiomyocytes per hESC seeded ([5]; CHIR99021 then 5 μM days 4-8, day 11): ~1.2 cardiomyocytes per hESC seeded | Cardiomyocyte yield compared to other Wnt inhibitor compounds such as IWP-2 ([5]; combination with CHIR99021): twofold increase in cardiomyocyte yield | IC50 [6]: 6.7 ± 1.5 nM | Cardiogenic properties ([7]; at specific time course (induction day 2 or 3)): higher cardiogenic properties as SB203580 and IWP-2 | Average GFP % ([7]; Induction Day 2): 1.5% | Average GFP μm^2 ([7]; Induction Day 2): 19.1 μm^2 | Average Area μm^2 ([7]; Induction Day 2): 814.7 μm^2 | Average GFP % ([7]; Induction Day 3): 31.1% | Average GFP μm^2 ([7]; Induction Day 3): 476.6 μm^2 | Average Area μm^2 ([7]; Induction Day 3): 1529.1 μm^2

Cc1ccc2nc(NC(=O)CSc3nc4c(c(=O)n3-c3ccccc3)SCC4)sc2c1 [IWP-2, reference compound]
IC50 [8]: 27 nM | Cell growth ([5]; CHIR99021 then 5 μM days 4-8): strongly reduced cell growth | Cardiomyocyte functionality ([5]; combination with CHIR99021, days 4-8): reduced functionality | Average GFP % ([7]; Induction Day 2): 4.8% | Average GFP μm^2 ([7]; Induction Day 2): 19.6 μm^2 | Average Area μm^2 ([7]; Induction Day 2): 362.9 μm^2 | Average GFP % ([7]; Induction Day 3): 38.4% | Average GFP μm^2 ([7]; Induction Day 3): 216.9 μm^2 | Average Area μm^2 ([7]; Induction Day 3): 604.5 μm^2

Cc1c[nH]c(-c2cnc(NCCNc3ccc(C#N)cn3)nc2-c2ccc(Cl)cc2Cl)n1 [CHIR99021]
IC50 [9]: 10 nM | Average beating frequency [5]: 25-30 beats per minute | Beat count (percentage of EBs contracting within 10 s) [5]: over 75% | Beating area [5]: > 5 mm^2 | Nkx2.5 population ([5]; day 11, flow cytometry, 3 μM CHIR99021 for 24 h): 30% | IC50 [10]: 6.7 nM

Skepinone-L
IC50 [11]: 5 nM | IC50 [12]: 40 nM

NC(=O)c1ccc(-c2nc(-c3ccc4c(c3)OCCO4)c(-c3ccccn3)[nH]2)cc1 [Compound D4476]
IC50 [13]: […] | IC50 [9]: 5800 nM | IC50 [14]: 9100 nM
